# Legend:
# [1] = system: ALS (acetolactate synthase); assay: ALS (Acetolactate Synthase) Inhibition Test, barnyardgrass enzyme; type: biochemical; conditions: enzymoreaction inhibition rate at 10 ppm (5 μg/0.5 ml)
# Protocol: To determine the selectivity in enzyme level between crops and weeds, an ALS inhibition test was conducted using pea as a representative of broadleaf crops and barnyardgrass as a representative of gramineous weeds.
# After seeds of pea and barnyardgrass were allowed to germinate at 25° C. for 8-14 days in a dark place, partially-purified suspensions (Suspensions A) of acetolactate syntase were separately obtained from seedlings in accordance with the method described in the literature, Plant Physiology, 75, 827-831. In a test tube, […], followed by the addition of 0.15 ml of a 20 mM K2 HPO4 solution and 0.25 ml of a reaction substrate medium which consisted of 40 mM of K2 HPO4, 40 mM of sodium pyruvate, 1 mM of TPP, 1 mM of MgCl2 and 20 μM of FAD so that 0.4 ml of a reaction solution (Solution B) was prepared. Added to 0.4 ml of Solution B was 0.1 ml of Suspension A. After the resultant mixture was shaken for 1 hour in a thermostat water bath controlled at 30° C., 50 μl of 6N sulfuric acid were added to terminate the reaction.
# Next, the reaction-terminated liquid mixture was transferred into a thermostat water bath controlled at 60° C. and was heated for 15 minutes. Thereafter, 0.5 ml of a 0.5% creatine solution and 0.5 ml of a 5% alkaline α-naphthol solution were added, and the resultant mixture was maintained at 60° C. for 15 minutes. As a result, the test solution developed a pink-red color. After the above operation, the absorbance of the test solution at 525 nm was measured by a spectrophotometer (Absorbance 1 of Test Compound).
# On the other hand, the absorbance (Absorbance 2 of Blank) of a solution obtained by subjecting a portion of Solution B, said portion being free of the test compound, to the above operation and the absorbance (Absorbance 3 of sulfuric acid terminated) of another solution obtained by subjecting another portion of Solution B, said portion containing 50 μl of 6N sulfuric acid as a test compound, were measured at the same time. […] [formula]
# [2] = system: Barnyardgrass (Echinochloa crus-galli); assay: Upland Foliar Application Test; type: in vivo; conditions: 30 g ai/a; foliar application at 2-3 leaf stage, emulsion; observed on the 30th day
# Excerpt: (§1) Resin-made 1/10000-are pots were filled with the soil of an upland field. Redroot pigweed, morningglory (Ipomoea pupurea), common lambsquarters, foxtail meadow, johnsongrass, barnyardgrass, green foxtail, large crabgrass, soybean, corn and cotton were separately seeded and were allowed to germinate in a green house. When each plant grew to the stage of 2-3 leaves, an emulsion formulated from a predetermined amount of each test compound in a similar manner to the method described in Formulation Example 11 was diluted with water and then sprayed at a predetermined application rate by means of a pressure-operated ULV (ultra low volume) sprayer. The application rate was controlled at 5 l per are. Influence to the crops and weeds were observed on the 30th day after the spray of the herbicides. The results are shown in Table 4 in which the degree of damages of each test plant and the degree of injury to each crop are shown in a similar manner to Test 2.
# Common lambsquarters = assay: Upland Foliar Application Test; type: in vivo; conditions: 30 g ai/a; foliar application at 2-3 leaf stage, emulsion; observed on the 30th day
# Excerpt: as §1
# [3] = system: Crabgrass (Digitaria adsendens); assay: Upland Foliar Application Test; type: in vivo; conditions: 30 g ai/a; foliar application at 2-3 leaf stage, emulsion; observed on the 30th day
# Excerpt: as §1
# [4] = system: Foxtail (Setaria viridis); assay: Upland Foliar Application Test; type: in vivo; conditions: 30 g ai/a; foliar application at 2-3 leaf stage, emulsion; observed on the 30th day
# Excerpt: as §1
# Foxtail meadow = assay: Upland Foliar Application Test; type: in vivo; conditions: 30 g ai/a; foliar application at 2-3 leaf stage, emulsion; observed on the 30th day
# Excerpt: as §1
# Johnsongrass = assay: Upland Foliar Application Test; type: in vivo; conditions: 30 g ai/a; foliar application at 2-3 leaf stage, emulsion; observed on the 30th day
# Excerpt: as §1
# Redroot Pigweed = assay: Upland Foliar Application Test; type: in vivo; conditions: 30 g ai/a; foliar application at 2-3 leaf stage, emulsion; observed on the 30th day
# Excerpt: as §1
# Corn (Zea maize) = assay: Upland Foliar Application Test, crop injury; type: in vivo; conditions: 30 g ai/a; foliar application at 2-3 leaf stage, emulsion; observed on the 30th day
# Excerpt: as §1
# [5] = system: Cotton (Gossypium indicum); assay: Upland Foliar Application Test, crop injury; type: in vivo; conditions: 30 g ai/a; foliar application at 2-3 leaf stage, emulsion; observed on the 30th day
# Excerpt: as §1
# Soybean (Glycine max) = assay: Upland Foliar Application Test, crop injury; type: in vivo; conditions: 30 g ai/a; foliar application at 2-3 leaf stage, emulsion; observed on the 30th day
# Excerpt: as §1
# [6] = system: Arrowhead sp. (Sagittaria pygmaea); assay: Submerged Soil Treatment Test (Pre-Emergence Treatment); type: in vivo; conditions: 30 g ai/a, granule, observed 30 days later
# Protocol: (§2) 1/5000-are Wagner pots were filled with soil. Seeds or tubers of barnyardgrass, bulrush and Sagittaria pygmaea were seeded or planted under submerged condition. Two pairs of rice seedlings (2-3 leaf stage), which had been reared in advance, were transplanted to each pot and were allowed to germinate in a green house. Each pair consisted of two rice seedlings. On day later (before emergence of weeds), each pot was treated with a granule which had been prepared by processing a predetermined amount of the test composition in accordance with a similar method to the method described in Formulation Example 9. The state of emergence of weeds and the state of injury of rice were observed 30 days later. In the table, the degrees of damages of the test plants and the degrees of injury of rice are shown in a similar manner to Example 2.
# [7] = system: Barnyardgrass (Echinochloa crus-galli); assay: as above; type: in vivo; conditions: 30 g ai/a, granule, observed 30 days later
# Protocol: as §2
# [8] = system: Bulrush (Scirpus juncoides); assay: as above; type: in vivo; conditions: 30 g ai/a, granule, observed 30 days later
# Protocol: as §2
# Rice (Oryza sativa) = assay: Submerged Soil Treatment Test (Growth Stage Treatment), crop injury; type: in vivo; conditions: 30 g ai/a, growth stage treatment (barnyardgrass two-leaf stage), granule, transplanted rice, observed 30 days later
# Protocol: as §2, with “allowed to grow in a” for “allowed to germinate in a”, “rice seedlings. When the barnyardgrass grew to the two-leaf stage, each pot” for “rice seedlings. On day later (before emergence of weeds), each pot”, “injury of the rice are” for “injury of rice are”
Structure (SMILES),Inhibition rate (%) Barnyardgrass [1] [%],Herbicidal effects Barnyardgrass (Echinochloa crus-galli) [2],Herbicidal effects Common lambquarters (Common lambsquarters),Herbicidal effects Crabgrass (Digitaria adsendens) [3],Herbicidal effects Foxtail (Setaria viridis) [4],Herbicidal effects Foxtail meadow (Foxtail meadow),Herbicidal effects Johnsongrass (Johnsongrass),Herbicidal effects Redroot Pigweed (Redroot Pigweed),Crop injury Corn (Zea maize) (Corn (Zea maize)),Crop injury Cotton (Gossypium indicum) [5],Crop injury Soybean (Glycine max) (Soybean (Glycine max)),Herbicidal effects Arrowhead sp. (Sagittaria pygmaea) [6],Herbicidal effects Barnyardgrass (Echinochloa crus-galli) [7],Herbicidal effects Bulrush (Scirpus juncoides) [8],Crop injury Rice (Oryza sativa) (Rice (Oryza sativa))
"CCOC(=O)c1ncccc1Oc1nc(OC)cc(OC)n1 [A, reference compound]",5,5 (0-5 (Death)),4 (6-10 (Severe damages)),4 (6-10 (Severe damages)),5 (0-5 (Death)),5 (0-5 (Death)),5 (0-5 (Death)),4 (6-10 (Severe damages)),5 (0-5 (Death)),5 (0-5 (Death)),5 (0-5 (Death)),4 (6-10 (Severe damages)),5 (0-5 (Death)),5 (0-5 (Death)),5 (0-5 (Death))
"COc1cc(OC)nc(Oc2ccccc2C=O)n1 [B, reference compound]",98,4 (6-10 (Severe damages)),3 (11-40 (Medium damages)),4 (6-10 (Severe damages)),4 (6-10 (Severe damages)),4 (6-10 (Severe damages)),4 (6-10 (Severe damages)),3 (11-40 (Medium damages)),5 (0-5 (Death)),5 (0-5 (Death)),5 (0-5 (Death)),5 (0-5 (Death)),3 (11-40 (Medium damages)),3 (11-40 (Medium damages)),5 (0-5 (Death))
"COc1cc(OC)nc(Oc2cccnc2C=O)n1 [Compound No. 1, 4,6-dimethoxy-2-(2-formyl-3-pyridyloxy)pyrimidine]",100,5 (0-5 (Death)),5 (0-5 (Death)),4 (6-10 (Severe damages)),5 (0-5 (Death)),5 (0-5 (Death)),5 (0-5 (Death)),5 (0-5 (Death)),0 (91-100 (No damages)),0 (91-100 (No damages)),1 (71-90 (Slight damages)),4 (6-10 (Severe damages)),4 (6-10 (Severe damages)),4 (6-10 (Severe damages)),1 (71-90 (Slight damages))

# Now from value to molecule, other results behind:
Inhibition rate (%) Barnyardgrass [1] [%],Structure (SMILES),Herbicidal effects Barnyardgrass (Echinochloa crus-galli) [2],Herbicidal effects Common lambquarters (Common lambsquarters),Herbicidal effects Crabgrass (Digitaria adsendens) [3],Herbicidal effects Foxtail (Setaria viridis) [4],Herbicidal effects Foxtail meadow (Foxtail meadow),Herbicidal effects Johnsongrass (Johnsongrass),Herbicidal effects Redroot Pigweed (Redroot Pigweed),Crop injury Corn (Zea maize) (Corn (Zea maize)),Crop injury Cotton (Gossypium indicum) [5],Crop injury Soybean (Glycine max) (Soybean (Glycine max)),Herbicidal effects Arrowhead sp. (Sagittaria pygmaea) [6],Herbicidal effects Barnyardgrass (Echinochloa crus-galli) [7],Herbicidal effects Bulrush (Scirpus juncoides) [8],Crop injury Rice (Oryza sativa) (Rice (Oryza sativa))
81,"COc1cc(OC)nc(Oc2cccnc2C(OC)OC)n1 [Compound No. 2, 3-(4.6-dimethoxy-2-pyrimidinyloxy)-2-pyridinecarboxaldehyde dimethylacetal]",4 (6-10 (Severe damages)),4 (6-10 (Severe damages)),4 (6-10 (Severe damages)),4 (6-10 (Severe damages)),4 (6-10 (Severe damages)),5 (0-5 (Death)),5 (0-5 (Death)),0 (91-100 (No damages)),0 (91-100 (No damages)),0 (91-100 (No damages)),5 (0-5 (Death)),5 (0-5 (Death)),5 (0-5 (Death)),0 (91-100 (No damages))
84,"CCOC(OCC)c1ncccc1Oc1nc(OC)cc(OC)n1 [Compound No. 3, 3-(4,6-dimethoxy-2-pyrimidinyloxy)-2-pyridinecarboxaldehyde diethylacetal]",5 (0-5 (Death)),5 (0-5 (Death)),5 (0-5 (Death)),5 (0-5 (Death)),5 (0-5 (Death)),5 (0-5 (Death)),5 (0-5 (Death)),0 (91-100 (No damages)),0 (91-100 (No damages)),0 (91-100 (No damages)),5 (0-5 (Death)),5 (0-5 (Death)),5 (0-5 (Death)),0 (91-100 (No damages))
94,CCCCOC(OCCCC)c1ncccc1Oc1nc(OC)cc(OC)n1 [Compound No. 4],5 (0-5 (Death)),5 (0-5 (Death)),5 (0-5 (Death)),5 (0-5 (Death)),5 (0-5 (Death)),5 (0-5 (Death)),5 (0-5 (Death)),0 (91-100 (No damages)),0 (91-100 (No damages)),0 (91-100 (No damages)),5 (0-5 (Death)),5 (0-5 (Death)),5 (0-5 (Death)),0 (91-100 (No damages))

# Reference: patent US5129937A, “Pyridyloxypyrimidine derivatives, preparation process thereof, and herbicidal compositions containing the same as active ingredients” (Mitsui Toatsu Chemicals Incorporated, priority 1989, dated 1992)
